Measurements as given in ChEMBL document CHEMBL5620434, “Total Synthesis and Antibacterial Evaluation of Lupinifolin and Its Natural Analogues” (2024).
≈ marks a conversion by molar mass, not a printed value. Calls of active or inactive are those of the source. The calls are words filed in the database; no cut-off is given here.

What was measured:
Escherichia coli [1] = test: Antibacterial activity against Escherichia coli ATCC 25922 assessed as reduction in bacterial growth incubated for 24 hrs by CLSI protocol based assay; format: functional
Staphylococcus aureus [2] = test: Antibacterial activity against methicillin-resistant Staphylococcus aureus 21-5 assessed as reduction in bacterial growth incubated for 24 hrs by CLSI protocol based assay; format: functional
Enterococcus faecalis [3] = test: Antibacterial activity against Enterococcus faecalis ATCC29212 assessed as reduction in bacterial growth incubated for 24 hrs by CLSI protocol based assay; format: functional
Staphylococcus aureus [4] = test: Antibacterial activity against Staphylococcus aureus ATCC29213 assessed as reduction in bacterial growth incubated for 24 hrs by CLSI protocol based assay; format: functional
Enterococcus faecalis [5] = test: Antibacterial activity against vancomycin-resistant Enterococcus faecalis ATCC51299 assessed as reduction in bacterial growth incubated for 24 hrs by CLSI protocol based assay; format: functional
Enterococcus faecalis [6] = test: Antibacterial activity against Enterococcus faecalis assessed as decrease in bacterial growth measured after 16 to 18 hrs in presence of cardiolipin; format: functional, organism-based; conditions: time 16-18 hrs
Escherichia coli [7] = test: Antibacterial activity against Escherichia coli ATCC 25922 in presence of polymyxin B nonapeptide; format: functional
Cell membrane [8] = test: Disruption of membrane integrity in […] Enterococcus faecalis ATCC29212 assessed as appearance of wrinkled cell surface at 2.0 ug/ml incubated for 2 hrs by SEM analysis; format: cell membranes; conditions: dose 2.0 µg/ml
Escherichia coli [9] = test: Antibacterial activity against Escherichia coli ATCC 25922; format: functional
Enterococcus faecalis [10] = test: Antibacterial activity against Enterococcus faecalis assessed as decrease in bacterial growth measured after 16 to 18 hrs in presence of peptidoglycan; format: functional, organism-based; conditions: time 16-18 hrs
Cell membrane [11] = test: Disruption of membrane integrity in Enterococcus faecalis ATCC29212 assessed as increase in red fluorescence at 8 times MIC incubated for 2 hrs by EthD-III dye based fluorescence microscopic analysis
Cell membrane [12] = test: Disruption of membrane integrity in […] Enterococcus faecalis ATCC29212 assessed as appearance of shrunken cell surface at 2.0 ug/ml incubated for 2 hrs by SEM analysis; format: cell membranes; conditions: dose 2.0 µg/ml
Cell membrane [13] = test: Disruption of membrane integrity in Enterococcus faecalis ATCC29212 assessed as increase in green fluorescence at 8 times MIC incubated for 2 hrs by NucGreen dye based fluorescence microscopic analysis; format: cell membranes
Enterococcus faecalis [14] = test: Antibacterial activity against Enterococcus faecalis assessed as decrease in bacterial growth measured after 16 to 18 hrs in presence of phosphatidylglycerol; format: functional, organism-based; conditions: time 16-18 hrs
Cell membrane [15] = test: Disruption of membrane integrity in […] Enterococcus faecalis ATCC29212 assessed as appearance of ruptured cell surface at 2.0 ug/ml incubated for 2 hrs by SEM analysis; format: cell membranes; conditions: dose 2.0 µg/ml
Enterococcus faecalis [16] = test: Antibacterial activity against Enterococcus faecalis assessed as decrease in bacterial growth measured after 16 to 18 hrs in presence of phosphatidylethanolamine; format: functional, organism-based; conditions: time 16-18 hrs
Streptococcus mutans [17] = test: Antibacterial activity against Streptococcus mutans by CLSI protocol based assay; format: functional
Streptococcus mutans [18] = test: Bactericidal activity against Streptococcus mutans by CLSI protocol based assay; format: functional

| Structure (SMILES) | MIC (Escherichia coli [1]) [µg/mL] | MIC (Staphylococcus aureus [2]) [µg/mL] | MIC (Enterococcus faecalis [3]) [µg/mL] | MIC (Staphylococcus aureus [4]) [µg/mL] | MIC (Enterococcus faecalis [5]) [µg/mL] | also measured |
| --- | --- | --- | --- | --- | --- | --- |
| CC(C)=CCc1c2c(c(O)c3c1O[C@H](c1ccccc1)CC3=O)C=CC(C)(C)O2 | > 128 | > 128 | > 128 | > 128 | > 128 | – |
| CC(C)=CCc1c(O)c2c(c3c1OC(C)(C)C=C3)OC(c1ccc(O)cc1O)CC2=O (stereo not drawn) | > 128 | 0.25 (≈ 0.592 µM) | 0.25 (≈ 0.592 µM) | 0.25 (≈ 0.592 µM) | 0.5 (≈ 1.18 µM) | Activity (Enterococcus faecalis [6]): Active; MIC (Escherichia coli [7]): 2 µg/mL; Activity (Cell membrane [8]): Active; MIC (Escherichia coli [9]): > 128 µg/mL; Activity (Enterococcus faecalis [10]): inactive; Activity (Cell membrane [11]): Active; Activity (Cell membrane [12]): Active; Activity (Cell membrane [13]): Active; Activity (Enterococcus faecalis [14]): Active; Activity (Cell membrane [15]): Active; Activity (Enterococcus faecalis [16]): inactive |
| CC(C)C[C@@H]1NC(=O)[C@@H](Cc2ccccc2)NC(=O)[C@H](CCN)NC(=O)[C@@H](NC(=O)[C@H](CCN)NC(=O)[C@@H](N)[C@@H](C)O)CCNC(=O)C([C@@H](C)O)NC(=O)[C@H](CCN)NC(=O)[C@H](CCN)NC1=O (stereo partly drawn) | – | – | – | – | – | MIC (Escherichia coli [9]): > 128 µg/mL |
| CC1(C)S[C@@H]2[C@H](NC(=O)[C@H](N)c3ccccc3)C(=O)N2[C@H]1C(=O)O [AMPICILLIN] | 8 (≈ 22.9 µM) | 32 (≈ 91.6 µM) | 0.5 (≈ 1.43 µM) | 0.5 (≈ 1.43 µM) | – | – |
| CC(C)=CCc1c2c(c(O)c3c1O[C@H](c1ccc(O)cc1O)CC3=O)C=CC(C)(C)O2 [FLEMICHIN D] | > 128 | 0.5 (≈ 1.18 µM) | 0.5 (≈ 1.18 µM) | 0.5 (≈ 1.18 µM) | 0.5 (≈ 1.18 µM) | – |
| COc1ccc([C@@H]2CC(=O)c3c(O)c4c(c(CC=C(C)C)c3O2)OC(C)(C)C=C4)c(O)c1 [KHONKLONGINOL H] | > 128 | 4 (≈ 9.16 µM) | 1 (≈ 2.29 µM) | 2 (≈ 4.58 µM) | 4 (≈ 9.16 µM) | – |
| CC(C)=CCc1c2c(c(O)c3c1O[C@H](c1ccc(O)cc1)CC3=O)C=CC(C)(C)O2 [LUPINIFOLIN] | > 128 | 2 (≈ 4.92 µM) | 0.5 (≈ 1.23 µM) | 2 (≈ 4.92 µM) | 1 (≈ 2.46 µM) | MIC (Streptococcus mutans [17]): 0.25 µg/mL (≈ 0.615 µM); MBC (Streptococcus mutans [18]): 0.5 µg/mL (≈ 1.23 µM) |
| CC(C)=CCc1c2c(c(O)c3c1O[C@H](c1ccccc1O)CC3=O)C=CC(C)(C)O2 [MINIMIFLORIN] | > 128 | 2 (≈ 4.92 µM) | 0.5 (≈ 1.23 µM) | 2 (≈ 4.92 µM) | 1 (≈ 2.46 µM) | – |
